Patent publication US8119364B2, “Methods for generating analogs of coenzyme A” (The Regents of the University of California, priority 2005, dated 2012)
Entries after “also recorded” stand apart in the source; their conditions may differ. Read-outs that look alike come from different tables or passages of the source.

Experiments:
[1] = molecular target: T1, E. coli PanK (CoAA) (Escherichia coli, UniProt P0A6I3); assay: Kinetic assay of pantetheine analogs as substrates of PanK; format: biochemical; settings: for Km / kcat: compound as substrate of E. coli PanK; for Km, fold lower: compared with pantothenate
T1 sequence (P0A6I3 1-316): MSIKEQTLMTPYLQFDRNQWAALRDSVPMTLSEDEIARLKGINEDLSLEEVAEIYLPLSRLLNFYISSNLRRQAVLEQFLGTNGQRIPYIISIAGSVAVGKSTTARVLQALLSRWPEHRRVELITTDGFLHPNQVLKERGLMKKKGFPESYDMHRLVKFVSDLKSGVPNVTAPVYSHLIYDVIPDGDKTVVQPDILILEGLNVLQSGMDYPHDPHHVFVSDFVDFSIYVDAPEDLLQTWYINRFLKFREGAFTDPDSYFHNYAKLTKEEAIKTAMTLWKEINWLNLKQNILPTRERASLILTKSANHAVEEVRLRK
Method: As mentioned earlier, phosphorylation of the primary hydroxyl group of pantothenate by the first protein in the CoA biosynthesis pathway, PanK, is believed to be the rate limiting step in vivo. Jackowski and Rock, J. Bacteria 148:926, 1981. Due to its role as the gatekeeper of CoA biosynthesis, each of the new analogs was assayed for kinetic activity with PanK (Table 2).
The assay was performed as previously described using the prototypical bacterial PanK, CoAA from E. coli. Kumar and Aldrich, Org. Lett. 5:613, 2003. The reaction of CoAA with the natural substrate pantothenate gave values that conformed to those previously reported in the literature. Worthington and Burkart, Org. Biomol. Chem. 4:44, 2005; Strauss and Begley, J. Biol. Chem. 277:48205, 2002. […] Conversely, compounds with PEG linkers between the pantoic acid moiety and the bioorthogonal terminus were poor substrates for CoAA.

[2] = tested on: E. coli overexpressing the carrier protein VibB and the PPTase Sfp; assay: In vivo uptake: carrier protein labeling in E. coli; format: cell-based; settings: 1 mM compound, 4 hours of growth, SDS-PAGE fluorescence or western blot
Method: (§1) (a) Analogs were assayed for gel shift after reaction with CoA biosynthesis enzymes (CoAA/D/E), PPTase (Sfp) and carrier protein (E. coli ACP). Conversion of apo-ACP to reporter modified crypto-ACP causes a change in the mobility of the protein on native PAGE. (b) In vitro modification of the carrier protein VibB by reaction with fluorescent pantetheine analogs, CoA biosynthesis enzymes (CoAA/D/E) and Sfp. (c) In vivo modification of carrier protein by incubation of fluorescent pantetheine analogs with E. coli overexpressing VibB and the PPTase Sfp. (d) In vitro modification of VibB by reaction with bioorthogonal pantetheine analogs, CoA biosynthesis enzymes (CoAA/D/E) and Sfp. Labeled carrier protein is visualized by chemoselective ligation to the appropriate biotin reporter (9-11) followed by SDS-PAGE, blotting onto nitrocellulose, and incubation with streptavidin-linked alkaline phosphatase. (e) In vivo modification of carrier protein by incubation of bioorthogonal pantetheine analogs with E. coli overexpressing VibB and the PPTase Sfp. Visualization as in (d).
(§2) The library of pantetheine analogs was tested for integration into the E. coli CoA pathway using an in vivo assay. Clarke et al., J. Am. Chem. Soc. 127:11234, 2005. E. coli overexpressing the carrier protein VibB and the PPTase Sfp were incubated with 1 mM of each compound in 1 ml of culture. After 4 hours of growth cells were pelleted, washed, and lysed. Lysate from these cultures was run on SDS-PAGE gels and detection carried out as described for the in vitro studies. […] To verify the results of the gels and blots, samples of crude lysate were assayed by MALDI-MS (FIG. 11). For MALDI-MS analysis doubly transformed E. coli containing plasmids for the carrier protein Fren and the PPTase Sfp were used.

[3] = tested on: CoA biosynthetic enzymes (CoAA/D/E), PPTase Sfp and apo-ACP; settings: MALDI-MS, in vitro
Source text: To confirm the results from this assay, the reaction mixtures were subjected to matrix-assisted laser desorption/ionization mass spectrometry (MALDI-MS). […] Compound 13 was reacted with the CoAA biosynthesis enzymes, ACP, and Sfp as described above and the reaction mix analyzed by MALDI without further purification.
Apo-ACP (a) is reacted with pantetheine analogs, CoA biosynthetic enzymes (CoAA/D/E) and the PPTase Sfp.

[4] = tested on: CoA biosynthesis enzymes (CoAA/D/E), PPTase (Sfp) and carrier protein (E. coli ACP); settings: native PAGE
Method: Virga et al., Bioorg. Med. Chem. 14:1007, 2006. […] Clarke et al., J. Am. Chem. Soc. 127:11234, 2005.
as §1

[5] = tested on: E. coli containing plasmids for the carrier protein Fren and the PPTase Sfp; assay: MALDI-MS of crude lysate after in vivo labeling; format: cell-based
Method: as §2

[6] = molecular target: CoAA (Escherichia coli, UniProt P0A6I3); settings: pantothenate as substrate
Source text: To isolate and investigate the effect of H-bond accepting heteroatoms in the linker region, pantetheine analogs 15 and 16 were synthesized. […] Virga et al., Bioorg. Med. Chem. 14:1007, 2006. […] To test if these compounds were acting as inhibitors of CoAA, a competitive kinetic assay was set up using pantotenate as the substrate. […] Ivey et al., J. Biol. Chem. 279:35622, 2004. Investigation of these compounds as potential inhibitor scaffolds is ongoing.

[7] = molecular target: T1, E. coli PanK (CoAA); settings: natural pantetheine, from reference 14, cited from earlier work
[8] = compound 3 (β-Ala linkage) versus compound 1

With `CC(C)(CO)[C@@H](O)C(=O)NCCN=[N+]=[N-]` [Compound 1] the “Km compared with natural substrate pantothenate (fold higher)” value (from here on “Km … (fold higher)”) [1] was 20 fold, the “turnover compared with the natural substrate (in words)” value [1] was “turnover within the range of the natural substrate” and the Km [1] was 692 ± 89.1 µM. The kcat [1] was 0.3722 ± 0.0257 s⁻¹.
In the case of `C#CCNC(=O)CCNC(=O)[C@H](O)C(C)(C)CO` [Compound 2], the “modification of VibB in vivo (detectability)” value (“modification of VibB in vivo” for short) [2] is reported as “detectable modification of VibB in vivo; also recorded: biodetectible in E. coli”, the “substrate suitability for CoAA/PanK (in words)” value [1] is reported as “kcat and Km values closely approaching those of the natural substrate” and the Km [1] is reported as 32.9 ± 2.54 µM. For the same compound, the kcat [1] was 0.5242 ± 0.0125 s⁻¹.
For `CC(C)(CO)[C@@H](O)C(=O)NCCC(=O)NCCN=[N+]=[N-]` [Compound 3], the “modification of VibB in vivo” value [2] was “detectable modification of VibB in vivo; also recorded: biodetectible in E. coli”, the “substrate suitability for CoAA/PanK (in words)” value [1] was “kcat and Km values closely approaching those of the natural substrate” and the “increase in Km” value [1, 8] was 10 fold. The “increase in catalytic efficiency” value [1, 8] was about 20 fold, the Km [1] was 43.5 ± 1.99 µM and the kcat [1] was 0.46695 ± 0.007 s⁻¹.
For `CC(=O)CCC(=O)NCCNC(=O)CCNC(=O)[C@H](O)C(C)(C)CO` [Compound 4], the “modification of VibB in vivo” value [2] was “detectable, but showed much weaker labeling; also recorded: biodetectible in E. coli”, the “Km … (fold higher)” value [1] was “two fold higher” and the “turnover compared with the natural substrate (in words)” value [1] was “near equal”. For the same compound, the Km [1] was 62.6 ± 3.89 µM and the kcat [1] was 0.344 ± 0.0075 s⁻¹.
In the case of `CC(C)(CO)[C@@H](O)C(=O)NCCC(=O)NCCNC(=O)CCN=[N+]=[N-]` [Compound 5], the “modification of VibB in vivo” value [2] is reported as “detectable modification of VibB in vivo; also recorded: biodetectible in E. coli”, the “Km … (fold higher)” value [1] is reported as “two fold higher” and the “substrate suitability for CoAA/PanK (in words)” value [1] is reported as “processed particularly efficiently by PanK”. The “turnover compared with the natural substrate (in words)” value [1] was “exceeding”, the Km [1] was 71.9 ± 6.98 µM and the kcat [1] was 0.6818 ± 0.0187 s⁻¹.
With `CC(=O)CCC(=O)NCCOCCOCCNC(=O)[C@H](O)C(C)(C)CO` [Compound 6] the “substrate suitability for CoAA/PanK (in words)” value [1] was “markedly decreased kinetic activity”, the Km [1] was 0.196 ± 0.09 µM and the kcat [1] was 0.0267 ± 0.001 s⁻¹.
With `CC(C)(CO)[C@@H](O)C(=O)NCCOCCOCCNC(=O)CCN=[N+]=[N-]` [Compound 7] the “Km … (fold higher)” value [1] was “two-fold higher”, the “substrate suitability for CoAA/PanK (in words)” value [1] was “viable substrates” and the Km [1] was 53.8 ± 11.2 µM. It also gave a kcat [1] of 0.103 ± 0.00733 s⁻¹.
In the case of `CC(C)(CO)[C@@H](O)C(=O)NCCOCCOCCOCCOCCOCCOCCOCCOCCOCCOCCN=[N+]=[N-]` [Compound 8], the “conversion to CoA analog and transfer onto carrier protein ACP” value [3] is reported as “significantly incomplete”, the “substrate suitability for CoAA/PanK (in words)” value [1] is reported as “such poor substrates that kinetic data could not be generated” and the “change in mobility / conversion of apo-ACP to crypto-ACP” value [4] is reported as “multiple bands on the gel that suggest apo-protein remains”.
In the case of `CN(C)c1ccc2c(CC(=O)NCCNC(=O)[C@H](O)C(C)(C)CO)cc(=O)oc2c1` [Compound 12], the “modification of VibB in vivo” value [2] is reported as “detectable modification of VibB in vivo; also recorded: biodetectible in E. coli”, the “substrate suitability for CoAA/PanK (in words)” value [1] is reported as “lower turnover and catalytic efficiency than analogs containing the natural β-Ala/pantoic acid linkage; also recorded: good binding but slow turnover” and the Km [1] is reported as 37.2 ± 5.82 µM. It also gave a kcat [1] of 0.1927 ± 0.0095 s⁻¹.
For `CN(C)c1ccc2c(CC(=O)NCCCCCCNC(=O)CCNC(=O)[C@H](O)C(C)(C)CO)cc(=O)oc2c1` [Compound 13], the “modification of VibB in vivo” value [2] was “detectable modification of VibB in vivo; also recorded: biodetectible in E. coli”, the “conversion to CoA analog and transfer onto carrier protein ACP” value [3] was “converted to CoA analogs and modify ACP” and the “Km … (fold higher)” value [1] was “the same as”. For the same compound, the “substrate suitability for CoAA/PanK (in words)” value [1] was “processed particularly efficiently by PanK”, the “turnover compared with the natural substrate (in words)” value [1] was “near equal” and the Km [1] was 28.4 ± 6.92 µM. The kcat [1] was 0.3193 ± 0.0235 s⁻¹ and the “in vivo uptake and attachment onto Fren” value [5] was “taken up by the cell, processed into a CoA analog and attached onto Fren”.
For `CN(C)c1cccc2c(S(=O)(=O)NCCNC(=O)CCNC(=O)[C@H](O)C(C)(C)CO)cccc12` [Compound 14], the “Km … (fold higher)” value [1] was “the same as”, the “substrate suitability for CoAA/PanK (in words)” value [1] was “processed particularly efficiently by PanK” and the “turnover compared with the natural substrate (in words)” value [1] was “near equal”. It also gave a Km [1] of 27.3 ± 3.28 µM and a kcat [1] of 0.2877 ± 0.0103 s⁻¹.
For `CN(C)c1ccc2c(CC(=O)NCCCOCCNC(=O)[C@H](O)C(C)(C)CO)cc(=O)oc2c1` [Compound 15], the “mode of inhibition of CoAA” value [6] was “non-competitive inhibitor”, the “substrate suitability for CoAA/PanK (in words)” value [1] was “extremely poor substrates; also recorded: losing almost all substrate activity” and the “Km, fold lower” value [1] was 100 fold. The Km [1] was 0.76 ± 0.32 µM and the kcat [1] was 0.0227 ± 0.00083 s⁻¹.
With `CN(C)c1ccc2c(CC(=O)NCCOCCCNC(=O)[C@H](O)C(C)(C)CO)cc(=O)oc2c1` [Compound 16] the “substrate suitability for CoAA/PanK (in words)” value [1] was “extremely poor substrates; also recorded: losing almost all substrate activity”, the “Km, fold lower” value [1] was 100 fold and the Km [1] was 0.14 ± 0.18 µM. For the same compound, the kcat [1] was 0.0167 ± 0.0005 s⁻¹.
For `CN(C)c1ccc2c(CC(=O)NCCOCCOCCNC(=O)[C@H](O)C(C)(C)CO)cc(=O)oc2c1` [Compound 17], the “conversion to CoA analog and transfer onto carrier protein ACP” value [3] was “converted to CoA analogs and modify ACP”, the “Km … (fold higher)” value [1] was “two-fold higher” and the “substrate suitability for CoAA/PanK (in words)” value [1] was “viable substrates”. For the same compound, the Km [1] was 51.2 ± 6.42 µM and the kcat [1] was 0.1677 ± 0.00717 s⁻¹.
With `CN(C)c1ccc2c(CC(=O)NCCOCCOCCOCCOCCOCCOCCOCCOCCOCCOCCNC(=O)[C@H](O)C(C)(C)CO)cc(=O)oc2c1` [Compound 18] the “substrate suitability for CoAA/PanK (in words)” value [1] was “such poor substrates that kinetic data could not be generated” and the “change in mobility / conversion of apo-ACP to crypto-ACP” value [4] was “multiple bands on the gel that suggest apo-protein remains”.
In the case of `CC(C)(CO)[C@@H](O)C(=O)NCCC(=O)NCCS` [Pantetheine], the Km [7] is listed as 91 ± 10 µM, the kcat [7] is listed as 0.32 ± 0.0017 s⁻¹ and the kcat ([7]; listed as pantetheine) is listed as 0.525 s⁻¹.
